Measurements from article PMC6271266, “Synthesis and Biological Evaluation of Liguzinediol Mono- and Dual Ester Prodrugs as Promising Inotropic Agents” (Molecules, 2014).
Converted amounts (≈) assume the structure as drawn.

Legend:
[1] = Hydrolysis (chemical stability) in phosphate buffer pH 7.4; format: physicochemical; details: buffer solution pH 7.4, 37 °C, n = 3, mean ± SD
Description: The chemical stabilities of the target products were analyzed by high-performance liquid chromatography (HPLC) and were calculated as the amount unchanged within 24 h in buffer solutions at pH 7.4.
Methanolic stock solutions of each compound were added to 10 mL of 50 mM phosphate buffer solution (pH 7.4). The resulting solution was placed in a constant shaker bath set at 37 °C and after 24 h, a 10 μL aliquot of reaction solution was taken and analyzed by HPLC [35]. All experiments were performed in triplicate.

[2] = Hydrolysis in 80% human plasma; format: in vitro ADME; details: for bioconversion to LZDO or monoester in human plasma: result in words; for half-life: human, 80% human plasma, pH 7.4, read-out: t1/2 (80% Human Plasma) (converted)
Description: (§1) For a rationally designed prodrug intended to prolong the half-life of the active moiety, the metabolic lability should be sufficient and continuous. Preliminary metabolic stability was assessed in human plasma and human liver microsomes The profile of disappearance of each prodrug followed a pseudo-first-order trend, and half-lives were calculated from the linear slopes of logarithmic plots of remaining prodrug over time.
A prodrug (100 μL, initial concentrations were 4.20–9.85 mM) in methanol was added to human plasma (1000 μL) diluted to 80% with 50 mM phosphate buffer solution (pH 7.4) and was placed in a constant shaker bath set. The resulting solution was subsequently incubated at 37 °C and at appropriate time intervals methanol (1 mL) containing caffeine as internal standard was added in order to deproteinize the serum. The sample was vortexed for 3 min, and then centrifuged for 5 min at 5000 g. 900 μL of clear supernatant was withdrawn and evaporated to remove the solvent. Before analysis by RP-HPLC, the samples were dissolved in methanol (200 μL), vortexed again for 5 min, and then centrifuged for 5 min at 12,000 g. All experiments were performed at least in triplicate.
(§2) Separation and quantitation of the releasing LZDO and the prodrugs were carried out using a HPLC procedure. The HPLC system was equipped with a Waters 2695 gradient pump, a Waters 2487 UV detector at 278 nm, and an Empower 2 data station. The analytical column for in vitro samples was a Boston Green ODS-AQ column (4.6 mm × 50 mm, 5 μm) and the injection volume was 10 μL. Gradient elution methods were performed with a flow rate at 1.0 mL/min on Boston Green ODS-AQ column maintained at 30 °C. The percentage of mobile phase consisting of methanol and water was varied to elute analytes (see Supplementary Material for details of the HPLC elution). The methods provided rapid analysis for quantifying LZDO, prodrug and internal standard simultaneously. When qualifying the releasing amount of LZDO, separate standard curves under specific analytic condition were prepared by spiking a known amount of LZDO and internal standard in blank matrix. Disappearance of each prodrug from in vitro samples was analyzed by taking the ratio of peak areas detected at sampling time to that at initial time. As for in vivo pharmacokinetic analysis, determinations only referred to LZDO and an Ultimate XB-C18 column (3.0 mm × 50 mm, 3 μm) with an injection volume of 2 μL was used. The flow rate on Ultimate XB-C18 column was 0.4 mL/min with a column temperature of 30 °C. The mobile phase consisted of methanol (A) and water (B). The initial mobile phase composition was 4% A/96% B and maintained for 8 min. After that the mobile phase composition was changed to 80% A/20% B over 4 min and held at that ratio for an additional 4 min. The mobile phase was returned to initial composition over 1 min and re-equilibrated for 3 min. For in vivo analytical samples, a separate standard curve was prepared using blank rat plasma and ranged from 0.39 to 50 μg/mL.

[3] = Metabolism in human liver microsomes; format: in vitro ADME; details: for bioconversion to LZDO or monoester in human liver microsomes: result in words; for half-life: human, human liver microsomes, pH 7.4, read-out: t1/2 (Human Liver Microsomes) (converted)
Description: as §1
To the human liver microsomes which were dissolved in 50 mM phosphate buffer solution (pH 7.4) to a concentration of 1 mg/mL, a prodrug (100 μL, initial concentrations were 4.20–9.85 mM) in methanol and NADPH (100 μL, 1 mM) also in 50 mM phosphate buffer solution (pH 7.4) were successively added to initiate the incubation. The solution was then incubated at 37 °C and the subsequent procedures of sample preparations were similar to those in Section 3.5. All experiments were performed at least in triplicate.
as §2

[4] = Partition coefficient, n-octanol / 50 mM phosphate buffer pH 7.4; format: physicochemical; details: 1-octanol/phosphate buffer (7.4) at 25 °C, n = 3, mean ± SD; for logP: n-octanol/50 mM phosphate buffer, pH 7.4
Description: Partitioning studies were performed with n-octanol and 50 mM phosphate buffer solution (pH 7.4) following standard procedures described in the literature. All experiments were conducted in triplicate, and the determination of LZDO was also carried out as a reference. Meanwhile, ChemBioDraw Ultra 12.0 was used to determine the calculated log p values as reference to the observed values.

[5] = Capacity factor (k') by HPLC (lipophilic index); format: physicochemical; details: n = 3, mean ± SD
Description: According to the method described in the literature, the capacity factor (k') of the prodrugs was determined using high-performance liquid chromatography (HPLC). Retention times of each prodrug and LZDO were measured and k' values were calculated from the following equation: k' = (t' − t0)/t0(1) where t0 is the retention time of the uracil and t' is the retention time of each compound. All experiments were conducted in triplicate.

[6] = Aqueous solubility in 50 mM phosphate buffer pH 7.4; format: physicochemical; details: for solubility at 24 h: thermodynamic from solid
Description: An excess of each prodrug was added to 5 mL of 50 mM phosphate buffer solution (pH 7.4), and shaken at 25 °C in a water bath to establish equilibration for 24 h. After the equilibration, the samples were filtered through a membrane filter (0.45 μm) and analyzed by HPLC. All experiments were conducted in triplicate.

[7] = prodrug disappearance, from pseudo-first-order rate constant
[8] = aqueous buffer, 50 mM phosphate buffer pH 7.4, 25 °C, 24 h, n = 3, mean ± SD

Compound | % Unchanged at 24 h (pH 7.4) [1] | % Max of LZDO Released (80% Human Plasma) ([2]; maximum percentage of liguzinediol released at 6 h incubation, 37 °C) [%] | t1/2 (80% Human Plasma) [2, 7] [h] | % Max of LZDO Released (Human Liver Microsomes) ([3]; maximum percentage of liguzinediol released at 6 h incubation, 37 °C, NADPH) [%] | t1/2 (Human Liver Microsomes) [3, 7] [h] | Log P [4] | Capacity Factor [5] | bioconversion to LZDO or monoester in human plasma [2] | bioconversion to LZDO or monoester in human liver microsomes [3] | melting point [°C] | half-life [2, 7] [min] | half-life [3, 7] [min] | logP [4] | solubility at 24 h [6, 8] [µg/mL] | Solubility ([6]; 50 mM phosphate buffer pH 7.4, 25 °C, 24 h, n = 3, mean ± SD) [µg/mL] | solubility at 24 h ([6]; phosphate buffer, 25 °C, pH 7.4, aqueous buffer, as restated in conclusions) [µg/mL]
CCCCCCCCCCCCCCCCCC(=O)OCc1nc(C)c(COC(=O)CCCCCCCCCCCCCCCCC)nc1C [Compound D18, 3,6-Dimethyl-2,5-dioctadecanoyloxymethylpyrazine] | stable ^c |  |  |  |  | thoroughly partitioned into n-octanol | 6.134 ± 0.084 | no bioconversion | no bioconversion | 75 to 76 |  |  |  |  |  | 
CCCCCCCCCC(=O)OCc1nc(C)c(COC(=O)CCCCCCCCC)nc1C [Compound D10, 2,5-Didecanoyloxymethyl-3,6-dimethylpyrazine] | 98.7 ± 0.4% |  |  |  |  |  | 1.068 ± 0.057 |  |  | 46 to 47 | 252 ± 24 | 246 ± 30 | 2.87 ± 0.16 |  |  | 
Cc1nc(COC(=O)C(C)(C)C)c(C)nc1COC(=O)C(C)(C)C [Compound D5, 3,6-Dimethyl-2,5-dipivaloyloxymethylpyrazine] | 96.1 ± 0.2% |  |  |  |  |  | 0.364 ± 0.039 |  |  | 80 to 82 | 204 ± 24 | 192 ± 18 | 2.5 ± 0.18 | 29.9 ± 1.36 (≈ 0.0889 mM) |  | 
CCCCCCCCCCCC(=O)OCc1nc(C)c(COC(=O)CCCCCCCCCCC)nc1C [Compound D12, 2,5-Didodecanoyloxymethyl-3,6-dimethylpyrazine] | 99.8 ± 0.5% |  |  |  |  |  | 1.640 ± 0.032 |  |  | 55 to 56 | 474 ± 60 | 474 ± 54 | 3.77 ± 0.21 |  |  | 
CCCCCCCCCCCCCCCC(=O)OCc1nc(C)c(COC(=O)CCCCCCCCCCCCCCC)nc1C [Compound D16, 2,5-Dihexadecanoyloxymethyl-3,6-dimethylpyrazine] | stable ^c |  |  |  |  | thoroughly partitioned into n-octanol | 3.911 ± 0.042 | no bioconversion | no bioconversion | 74 to 75 |  |  |  |  |  | 
Cc1nc(CO)c(C)nc1CO [Liguzinediol, 2,5-Dihydroxymethyl-3,6-dimethylpyrazine] |  |  |  |  |  |  | 0.100 ± 0.004 |  |  |  |  |  | -1.12 ± 0.11 | 224000 (≈ 1330 mM) |  | 

More lines, now with the values ahead:

% Unchanged at 24 h (pH 7.4) [1] | % Max of LZDO Released (80% Human Plasma) ([2]; maximum percentage of liguzinediol released at 6 h incubation, 37 °C) [%] | t1/2 (80% Human Plasma) [2, 7] [h] | % Max of LZDO Released (Human Liver Microsomes) ([3]; maximum percentage of liguzinediol released at 6 h incubation, 37 °C, NADPH) [%] | t1/2 (Human Liver Microsomes) [3, 7] [h] | Log P [4] | Capacity Factor [5] | bioconversion to LZDO or monoester in human plasma [2] | bioconversion to LZDO or monoester in human liver microsomes [3] | melting point [°C] | half-life [2, 7] [min] | half-life [3, 7] [min] | logP [4] | solubility at 24 h [6, 8] [µg/mL] | Solubility ([6]; 50 mM phosphate buffer pH 7.4, 25 °C, 24 h, n = 3, mean ± SD) [µg/mL] | solubility at 24 h ([6]; phosphate buffer, 25 °C, pH 7.4, aqueous buffer, as restated in conclusions) [µg/mL] | Compound
98.2 ± 0.6% | 15.6 ± 1.6 | 9.6 ± 1.1 | 15.9 ± 1.2 | 9.5 ± 0.9 | 3.38 ± 0.20 | 1.055 ± 0.061 |  |  |  |  |  |  |  |  |  | 3,6-Dimethyl-5-hydroxy-2-octadecanoyloxymethylpyrazine [Compound M18]
99.7 ± 0.2% |  |  |  |  |  | 0.514 ± 0.012 |  |  | 40 to 41 | 156 ± 30 | 132 ± 6 | 3.12 ± 0.15 | 2.23 ± 0.11 (≈ 0.00636 mM) |  |  | CCCCCCCCCCCC(=O)OCc1nc(C)c(CO)nc1C [Compound M12, 3,6-Dimethyl-2-dodecanoyloxymethyl-5-hydroxymethylpyrazine]
99.4 ± 0.4% |  |  |  |  |  | 0.834 ± 0.012 |  |  | 60 to 62 | 198 ± 36 | 198 ± 42 | 3.25 ± 0.13 |  |  |  | CCCCCCCCCCCCCCCC(=O)OCc1nc(C)c(CO)nc1C [Compound M16, 3,6-Dimethyl-2-hexadecanoyloxymethyl-5-hydroxymethylpyrazine]
98.9 ± 0.3% |  |  |  |  |  | 0.210 ± 0.020 |  |  | 66 to 67 | 156 ± 6 | 306 ± 12 | 1.33 ± 0.1 |  | 8000 ± 350 (≈ 31.7 mM) | 8000 (≈ 31.7 mM) | Cc1nc(COC(=O)C(C)(C)C)c(C)nc1CO [Compound M5, 3,6-Dimethyl-5-hydroxymethyl-2-pivaloyloxymethylpyrazine]
98.9 ± 0.3% |  |  |  |  |  | 0.400 ± 0.015 |  |  | 31 to 32 | 138 ± 12 | 126 ± 36 | 2.48 ± 0.04 | 8.89 ± 0.21 (≈ 0.0276 mM) |  |  | CCCCCCCCCC(=O)OCc1nc(C)c(CO)nc1C [Compound M10, 2-Decanoyloxymethyl-3,6-dimethyl-5-hydroxymethylpyrazine]
